Data on 14 compounds can be found in US6476034B2, “Antiviral azaindole derivatives” (priority 2000, dated 2002).

In this experiment the test system is single-round infectious HIV-1 reporter virus. The experiment in a line: microbe, parasite or virus in culture. It counts as cell-based. Particulars: for EC50: Human immunodeficiency virus 1, HeLa-CD4/CCR5; for inhibition at 10 µM: Human immunodeficiency virus 1, HeLa-CD4/CCR5, 72 h, read-out: Average % inhibition at or <10 μM; for Average % inhibition at or <10 μM: HeLa CD4 CCR5 cells, luciferase expression 3 days (72 hours) after infection, compounds tested below 10 μM: % inhibition at 10 μM extrapolated with XLfit, mean of at least two experiments.

Bounds are passed on as bounds.

In the case of `C[C@@H]1CN(C(=O)c2ccccc2)CCN1C(=O)C(=O)c1c[nH]c2nc(C#N)ccc12` [Compound 12a, (R)-N-(benzoyl)-3-methyl-N′-[(6-cyano-7-azaindol-3-yl)-oxoacetyl]-piperazine], the EC50 – broadly, the midpoint of the concentration-response curve – was < 1000 nM and the inhibition – broadly, the share of the control response that was lost under treatment – at 10 µM was > 99%.
Take `CC1CN(C(=O)c2ccccc2)CCN1C(=O)C(=O)c1c[nH]c2cnccc12` (centres unmarked) [Compound 5q, N-(benzoyl)-3-Methyl-N′[(6-azaindol-3-yl)-oxoacetyl]-piperazine]: the EC50 was < 1000 nM and the inhibition at 10 µM came to 97%.
As to `C[C@@H]1CN(C(=O)c2ccccc2)CCN1C(=O)C(=O)c1c[nH]c2c1c([N+](=O)[O-])cc[n+]2[O-]` [Compound 15a, (R)-N-(benzoyl)-3-methyl-N′-[(4-nitro-7-oxide-7-azaindol-3-yl)-oxoacetyl]-piperazine], the “Average % inhibition at or <10 μM” value was 70%.
With `CCOc1cc[n+]([O-])c2[nH]cc(C(=O)C(=O)N3CCN(C(=O)c4ccccc4)C[C@H]3C)c12` [Compound 16d, (R)-N-(benzoyl)-3-methyl-N′-[(4-ethoxy-7-oxide-7-azaindol-3-yl)-oxoacetyl]-piperazine], the “Average % inhibition at or <10 μM” value is on record as 88%.
As to “(R)-N-(benzoyl)-3-methyl-N′-[(4 or 6)-vinyl-7-azaindol-3-yl)-oxoacetyl]-piperazine [Compound 11c]”, the “Average % inhibition at or <10 μM” value is on record as 48%.
Take `C[C@H]1CN(C(=O)c2ccccc2)CCN1C(=O)C(=O)c1c[nH]c2cnccc12` [Compound 5s, (S)-N-(benzoyl)-3-Methyl-N′-[(6-azaindol-3-yl)-oxoacetyl]-piperazine]: the EC50 is > 500 nM and the inhibition at 10 µM came out at 56%.
As for `C[C@@H]1CN(C(=O)c2ccccc2)[C@@H](C)CN1C(=O)C(=O)c1c[nH]c2ncccc12` (relative stereo) [Compound 5i, trans-N-(benzoyl)-2,5-dimethyl-N′-[(7-azaindol-3-yl)-oxoacetyl]-piperazine], the concentration giving a half-maximal response (EC50) was < 1000 nM and the inhibition at 10 µM worked out at 89%.
Regarding `C[C@@H]1CN(C(=O)c2ccccc2)CCN1C(=O)C(=O)c1c[nH]c2c(Cl)nccc12` [Compound 5u, (R)-N-(benzoyl)-3-Methyl-N′-[(7-Chloro-6-azaindol-3-yl)-oxoacetyl]-piperazine], the EC50 was < 1000 nM and the inhibition at 10 µM was 99%.
The matching figures for `C[C@@H]1CN(C(=O)c2ccccc2)CCN1C(=O)C(=O)c1cn(C)c2ncccc12` [Compound 21a, (R)-N-(benzoyl)-3-methyl-N′-[(1-methyl-7-azaindol-3-yl)-oxoacetyl]-piperazine]: < 1000 nM and 70%.
The matching figures for `COc1ccnc2[nH]cc(C(=O)C(=O)N3CCN(C(=O)c4c(F)c(F)c(N=[N+]=[N-])c(F)c4F)C[C@H]3C)c12` [Compound 5n, (R)-N-(4-azido-2,3,5,6-tetra-fluorobenzoyl)-3-methyl-N′-[(4-methoxy-7-azaindol-3-yl)-oxoacetyl]-piperazine]: < 1000 nM and 93%.
In the case of `C[C@@H]1CN(C(=O)c2ccccc2)CCN1C(=O)C(=O)c1c[nH]c2nccc(OCC(F)(F)F)c12` [Compound 17b, (R)-N-(benzoyl)-3-methyl-N′-[(4-(2,2,2-trifluoroethoxy)-7-azaindol-3-yl)-oxoacetyl]-piperazine], the EC50 was < 1000 nM and the inhibition at 10 µM worked out at 99%.
On the same counts, the results for `C[C@@H]1CN(C(=O)c2ccccc2)CCN1C(=O)C(=O)c1c[nH]c2nc(Cl)ccc12` [Compound 9b, (R)-N-(benzoyl)-3-methyl-N′-[(6-chloro-7-azaindol-3-yl)-oxoacetyl]-piperazine] are < 1000 nM and > 99%.
Consider “(R)-N-(benzoyl)-3-methyl-N′-[(4 or 6)-5phenyl-7-azaindol-3-yl)-oxoacetyl]-piperazine [Compound 11b]”, for which the “Average % inhibition at or <10 μM” value is 85%.
“(R)-N-(benzoyl)-3-methyl-N′-[(4 or 6)-methyl-7-azaindol-3-yl)-oxoacetyl]-piperazine [Compound 11a]”: the “Average % inhibition at or <10 μM” value was 99%.
